Test results published in patent US9499462B2, “Isolated compounds from turmeric oil and methods of use” (Cognition Therapeutics, Inc., priority 2011, dated 2016).
Entries after “also recorded” stand apart in the source; their conditions may differ.

Assays:
[1] = system: Abeta oligomer-induced acceleration of exocytosis (membrane trafficking) in primary neurons; experiment: Exocytosis / MTT membrane trafficking assay in mature primary neurons treated with Abeta oligomers; format: cell-based, Sprague-Dawley rat; conditions: for efficacy relative to the parent CT0093 (in words) / potency relative to the parent CT0093 (in words): 21DIV primary neurons; for block of Abeta oligomer effects on membrane trafficking (in words): primary neurons in vitro
Method: Primary neurons from E18 Sprague-Dawley rat embryos are plated at optimized concentrations in 384 well plates in NB media (Invitrogen). Neurons are maintained in cultures for 3 weeks, with twice weekly feeding of NB media with N2 supplement (Invitrogen). A test compound is added to cells, followed by addition of Vehicle or Abeta oligomer preparations (1.5 μM), and incubated for 1 to 24 hr. at 37° C. in 5% CO2. MTT reagent (3-(4,5-dimethylthizaol-2-yl)-2,5diphenyl tetrazolium bromide) (Roche Molecular Biochemicals) is reconstituted in phosphate buffered saline to 5 mg/mL. 10 μL of MTT labeling reagent is added to each well and incubated at 37° C. for 1 h, then imaged.
Each assay plate is formatted so that compounds are tested with and without Abeta on each plate.
Similar procedures for exocytosis assays/MTT assays can be found in the literature. See e.g., Liu Y, et. al., Detecting bioactive amyloid beta peptide species in Alzheimer's disease. J. Neurochem. 2004 November; 91(3):648-56; Liu Y, and Schubert D. “Cytotoxic amyloid peptides inhibit cellular 3-(4,5-dimethylthiazol-2-yl)-2,5-diphenyltetrazolium bromide (MTT) reduction by enhancing MTT formazan exocytosis.” J. Neurochem. 1997 December; 69(6):2285-93; and Liu Y, and Schubert D. “Treating Alzheimer's disease by inactivating bioactive amyloid beta peptide” Curr. Alzheimer Res. 2006 April; 3(2):129-35. Abeta 1-42 oligomers made according to published methods [See e.g. Dahlgren et al., “Oligomeric and fibrillar species of amyloid-beta peptides differentially affect neuronal viability” J Biol. Chem. 2002 Aug. 30; 277(35):32046-53. Epub 2002 Jun. 10. LeVine H 3rd. “Alzheimer's beta-peptide oligomer formation at physiologic concentrations” Anal Biochem. 2004 Dec. 1; 335(1):81-90; Shrestha et. al, “Amyloid beta peptide adversely affects spine number and motility in hippocampal neurons” Mol Cell Neurosci. 2006 November; 33(3):274-82. Epub 2006 Sep. 8; Puzzo et al., “Amyloid-beta peptide inhibits activation of the nitric oxide/cGMP/cAMP-responsive element-binding protein pathway during hippocampal synaptic plasticity” J. Neurosci. 2005 Jul. 20; 25(29):6887-97; Barghorn et al., “Globular amyloid beta-peptide oligomer—a homogenous and stable neuropathological protein in Alzheimer's disease” J. Neurochem. 2005 November; 95(3):834-47. Epub 2005 Aug. 31; Johansson et al., Physiochemical characterization of the Alzheimer's disease-related peptides A beta 1-42 Arctic and A beta 1-42 wt. […] Negative controls include vehicle-treated neurons as well as neurons treated with 28 μM concentrations of memantine. […] These controls, on each plate, serve as normalization tools to calibrate assay performance on a plate-by-plate basis.
Primary neuronal cultures are prepared as follows: Optimal cell density of primary neuronal cultures is determined based on cellular response to Abeta oligomers using the exocytosis assay as a readout, and immunohistochemical analysis of the relative proportion of glia to neurons in the cultures. Cultures are monitored on a weekly basis with immunohistochemistry and image processing-based quantification to monitor the percentage of the cultures that are neurons vs. glia (Glial cells). Cultures containing more than 20% glia (positive for GFAP) vs. neurons (staining positively with antibodies directed against MAP2) at the screening age of 21 days in vitro (21 DIV) are rejected.
Toxicity is monitored in each image-based assay via quantification of nuclear morphology visualized with the DNA binding dye DAPI (Invitrogen). Nuclei that are fragmented are considered to be in late stage apoptosis (Majno and Joris '95). Peptide lots producing unusual peptide size ranges or significant toxicity at a standard 1.5 uM concentration on neurons are rejected.

in vivo = conditions: rat, 1 mg/kg
Method: PK studies are performed at CEREP Inc. of Redmond Wash., according to their standard protocols: The plasma samples were processed using acetonitrile precipitation and analyzed by HPLC-MS or HPLC-MS/MS. Peak areas were recorded, and the concentrations of the test compound in the unknown plasma samples were determined using the respective calibration curve. The reportable linear range of the assay was determined, along with the lower limit of quantitation (LLQ).
Pharmacokinetic studies were performed according to the following protocols: The plasma samples were processed using acetonitrile precipitation and analyzed by HPLC-MS or HPLC-MS/MS. Peak areas were recorded, and the concentrations of the test compound in the unknown plasma samples were determined using the respective calibration curve. The reportable linear range of the assay was determined, along with the lower limit of quantitation (LLQ).

[2] = system: Abeta oligomer effects on memory; experiment: Fear conditioning assay (contextual memory, Abeta oligomer administration); format: in vivo, mice
Method: CT0109 and CT0093 were tested in an animal model of a memory-dependent behavioral task known as fear conditioning. The study protocol was designed based on published protocols (See e.g. Puzzo D, Privitera L, Leznik E, Fa M, Staniszewski A, Palmeri A, Arancio O. Picomolar amyloid-beta positively modulates synaptic plasticity and memory in hippocampus. J Neurosci. 2008 Dec. 31; 28(53):14537-45.). The formation of contextual memories is dependent upon the integrity of medial temporal lobe structures such as the hippocampus. In this assay mice were trained to remember that a particular salient context (conditioned stimulus; CS) is associated with an aversive event, in this case a mild foot shock (the unconditioned stimulus, US). Animals that show good learning will express an increase in freezing behavior when placed back into the same context. This freezing is absent in a novel context. Increased freezing in the context indicates strong hippocampal-dependent memory formation in animals. Memory tested in Fear Conditioning is sensitive to elevations of soluble Aβ. […] The fear condition model for memory was performed as described herein.

[3] = system: 9 month old male Swe/Ldn mice; experiment: Behavioral efficacy in transgenic Swe/Ldn mice (osmotic minipump); format: in vivo; conditions: transgenic mouse model of AD
Method: CT0093 was tested for its ability to reverse deficits in 9 month old male Swe/Ldn mice in a pilot study at 1 and 10 mg/kg/day via the osmotic minipump method.
Subcutaneous administration of 10 mg/kg/day of CT0093 (shown in gray squares and solid gray line and solid bar) achieved brain concentrations of 540 nM (FIG. 9).

[4] = system: Abeta oligomer-induced synapse loss; experiment: Abeta oligomer-induced synapse loss in vitro; format: cell-based

CC1=CC=C(C(C)CC(CC(C)(C)O)NCC(C)C)CC1 (stereo not drawn) [CT1296, 4-(isobutylamino)-2-methyl-6-(4-methylcyclohexa-1,3-dienyl)heptan-2-ol]
efficacy relative to the parent CT0093 (in words) [1]: somewhat less efficacious | potency relative to the parent CT0093 (in words) [1]: maintained the potency of the parent compound | efficacy relative to the parent CT0093 (in words) ([1]; listed as CT01296): slightly less efficacious | clearance (in vivo): 120 ± 13 mL/min/kg | half-life (in vivo): 1.15 ± 0.0833 h

O[C@H]1[C@H](O)[C@@H](O)[C@H](O)[C@@H](O)[C@@H]1O [scyllo-inositol (AZD-103), scyllo-inositol, reference compound]
block of Abeta oligomer effects on membrane trafficking (in words) [1]: none were active

CC12CC3CC(C)(C1)CC(N)(C3)C2 [memantine, reference compound]
inhibition at 28 µM ([1]; Rattus norvegicus, Primary neuron, 28 μM memantine, plate control, read-out: inhibition of oligomer effects): 50%

C[N+](C)(C)CCCCCC[N+](C)(C)C [hexamethonium bromide, reference compound]
block of Abeta oligomer effects on membrane trafficking (in words) [1]: none were active

COc1cc(CCC(C)NCc2ccc(C(F)(F)F)cc2)ccc1O (stereo not drawn) [CT0109, 4-(3-(4-(trifluoromethyl)benzylamino)butyl)-2-methoxyphenol]
EC50 ([1]; Rattus norvegicus, Primary neuron, MTT assay, primary neurons, read-out: EC50, block of Abeta oligomer-induced acceleration of exocytosis / oligomer effects on membrane trafficking): 7 µM | block of Abeta oligomer effects on membrane trafficking (in words) [1]: effective in both prevention; also recorded: effective at stopping Abeta oligomer mediated effects on membrane trafficking | pharmacological competition with Abeta oligomers ([1]; synthetic and human Alzheimer's patient-derived oligomers): exhibit pharmacological competition with both synthetic (A, B) and human Alzheimer's patient-derived (C, D) oligomers | block of Abeta oligomer effects on memory ([2]; 2 pmol dose, given prior to Abeta oligomers (200 nM), mice): blocked oligomer effects on memory; also recorded: completely blocked the effect of Abeta on memory | adverse behavioral changes ([2]; any dose): No adverse behavioral changes were observed | effect of compound alone on memory ([2]; without Abeta): No effect of compound alone was observed | improvement of memory / cognitive performance of transgenic mice [3]: capable of improving cognitive performance in the transgenic model of AD; also recorded: improve memory deficits in a transgenic mouse model of Alzheimer's disease | block of Abeta oligomer-induced synapse loss [4]: inhibition of processed product of amyloid precursor protein-mediated synapse loss

Cc1ccc(C(C)CC(CC(C)(C)O)NCC(C)C)cc1 (stereo not drawn) [CT1297, 4-(isobutylamino)-2-methyl-6-p-tolylheptan-2-ol]
potency relative to the parent CT0093 (in words) [1]: significantly less potent than the parent CT0093 | fold less potent than the parent CT0093 ([1]; primary screening assay): ~2 fold | clearance (in vivo): 101 ± 12 mL/min/kg | half-life (in vivo): 2.68 ± 1.62 h

C[C@]12N[C@H](Cc3ccccc31)c1ccccc12 [MK-801, reference compound]
block of Abeta oligomer effects on membrane trafficking (in words) [1]: none were active
